From patent publication US3969521A, “Pharmaceutical compositions containing tetrahydroalstonine and method for treating circulation disorders” (Science Union et Cie, Societe Francaise de Recherche Medical, priority 1974, dated 1976)
“Also recorded” adds a separate entry of the source.

Experiments:
central nervous system = assay: Effects on the central nervous system; assay type: in vivo
[1] = tested on: analgetic effect of Morphine; assay: Analgetic effect of Morphine; conditions: in vivo
[2] = tested on: recovery of learned memories; assay: Recovery of learned memories after electroshock (aquatic maze crossing); assay type: in vivo, rat; conditions: for effect on the recovery of learned memory: rat, in vivo
Text: Effects of tetrahydroalstonine on the recovery of learned memories on rats.
Tetrahydroalstonine has been tested on lots of rats in order to determine how fast it allows the recovery of learned memories after supramaximal electroshock in comparision with Vincamine and Papaverine. These last compounds are known to be active on the circulation namely as vasodilating agents.
In this test, as described by C. Giurgea (J. Pharmacol. (Paris) 3 17 (1972)), the rats are submitted to a submaximal electroshock which causes a spatio-temporal desorientation. This syndrom is evidenced by the difficulties the tested animals encountered for crossing over a maze filled with cold water without any error, after they have been submitted to the electroshock. The rats have been previously trained to swimm through this maze and the training has been renewed four times for 2 days.
The electric shock was delivered by means of a Neurovar apparatus (ALVAR Electronics) the third day. 20 Minutes after the electro shock, each lot of rats is tested and the time for crossing over the maze is determined. Immediately after, the rats received the compound to be tested by intra oesophageal tubing. Each lot is then experienced four times, 1, 2, 3, and 4 hours after the electroshock.
The score of performances of each individual is recorded and every error during the crossing over noticed.
The compounds to be tested (papaverine, vincamine and tetrahydroalstonine) are given to the animals, suspended in an aqueous solution of carboxymethylcellulose and sorbitan monooleate.
Papaverine and vincamine were administered at dosis ranging from 1 to 20 mg/kg. Tetrahydroalstonine was administered at a dosis of 0.6 mg/kg, 6 mg/kg and 60 mg/kg.
A lot of rats received only the aqueous solvent under the same volume (0.5 ml/100 g animal) as controls.
Therein are reported for each lot of rats the number of errors and the average time for crossing over the maze during the 5 tests performed after the animals have been subjected to the electroshock.
The treatment has been given 20 mn after the electroshock, immediately
after the first crossing over

[3] = 10 mg/kg P.O., 20 minutes (before treatment)
[4] = 10 mg/kg P.O., 20 minutes after electroshock (before treatment)
[5] = 20 mg/kg P.O., 20 minutes (before treatment)
[6] = 20 mg/kg P.O., 20 minutes after electroshock (before treatment)

| SMILES | a = variation of average number of errors as regard as the controls [2, 3] | E = average number of errors [2, 4] | T = average time for crossing over [2, 4] | E = average number of errors ([2]; 10 mg/kg P.O., 60 minutes) | T = average time for crossing over ([2]; 10 mg/kg P.O., 60 minutes) | a = variation of average number of errors as regard as the controls ([2]; 10 mg/kg P.O., 60 minutes) | E = average number of errors ([2]; 10 mg/kg P.O., 120 minutes) | T = average time for crossing over ([2]; 10 mg/kg P.O., 120 minutes) | a = variation of average number of errors as regard as the controls ([2]; 10 mg/kg P.O., 120 minutes) | E = average number of errors ([2]; 10 mg/kg P.O., 180 minutes) | T = average time for crossing over ([2]; 10 mg/kg P.O., 180 minutes) | a = variation of average number of errors as regard as the controls ([2]; 10 mg/kg P.O., 180 minutes) | E = average number of errors ([2]; 10 mg/kg P.O., 240 minutes) | T = average time for crossing over ([2]; 10 mg/kg P.O., 240 minutes) | a = variation of average number of errors as regard as the controls ([2]; 10 mg/kg P.O., 240 minutes) | effect on the recovery of learned memory (onset) ([2]; 20 mg/kg) | a = variation of average number of errors as regard as the controls [2, 5] | E = average number of errors [2, 6] | T = average time for crossing over [2, 6] | E = average number of errors ([2]; 20 mg/kg P.O., 60 minutes) | other results |
| --- | --- | --- | --- | --- | --- | --- | --- | --- | --- | --- | --- | --- | --- | --- | --- | --- | --- | --- | --- | --- | --- |
| COC(=O)C1=CO[C@@H](C)[C@H]2CN3CCc4c([nH]c5ccccc45)[C@@H]3C[C@H]12 [Raubasine, reference compound] |  |  |  |  |  |  |  |  |  |  |  |  |  |  |  |  |  |  |  |  | effect on the central nervous system (central nervous system; 50 to 100 mg/kg perorally): merely a sedative; effect on the central nervous system (central nervous system; dosage not stated): merely endowed with sedative properties; effect on the analgetic effect of Morphine [1]: does not exert such effect; also recorded: does not increase the analgetic effects of morphine |
| CC[C@]12CCCN3CCc4c(n(c5ccccc45)[C@@](O)(C(=O)OC)C1)[C@@H]32 [Vincamine] | - | 10,8 | 135,6 seconds | 7,2 | 82,7 seconds | - | 4,6 | 44,1 seconds | - | 5,6 | 52,8 seconds | + | 4,3 | 38,6 seconds | - | delayed | + | 14,3 | 124,5 seconds | 7,1 | number of mistakes ([2]; 10 mg/kg): did not show any decrease in the number of mistakes; performances ([2]; 10 mg/kg, after 2 hours): slight improvement; start of the improving effect after the administration ([2]; 20 mg/kg): 40 min; start of the improving effect after the electroshock ([2]; 20 mg/kg): 60 mn; T = average time for crossing over ([2]; 20 mg/kg P.O., 60 minutes): 58,4 seconds; a = variation of average number of errors as regard as the controls ([2]; 20 mg/kg P.O., 60 minutes): -; E = average number of errors ([2]; 20 mg/kg P.O., 120 minutes): 5,2; T = average time for crossing over ([2]; 20 mg/kg P.O., 120 minutes): 38,2 seconds; a = variation of average number of errors as regard as the controls ([2]; 20 mg/kg P.O., 120 minutes): -; E = average number of errors ([2]; 20 mg/kg P.O., 180 minutes): 2,5; T = average time for crossing over ([2]; 20 mg/kg P.O., 180 minutes): 22,1 seconds; a = variation of average number of errors as regard as the controls ([2]; 20 mg/kg P.O., 180 minutes): -; b = statistical value (student's test), number of errors ([2]; 20 mg/kg P.O., 180 minutes): 0,0005; E = average number of errors ([2]; 20 mg/kg P.O., 240 minutes): 3,2; T = average time for crossing over ([2]; 20 mg/kg P.O., 240 minutes): 24,2 seconds; a = variation of average number of errors as regard as the controls ([2]; 20 mg/kg P.O., 240 minutes): -; b = statistical value (student's test), number of errors ([2]; 20 mg/kg P.O., 240 minutes): 0,025; number of mistakes ([2]; 20 mg/kg, 3 and 4 hours after the electroshock): significantly decreased; effect on the recovery of learned memory [2]: improving effect |
| COc1ccc(Cc2nccc3cc(OC)c(OC)cc23)cc1OC [Papaverine] | + | 14,3 | 154,2 seconds | 7,3 | 75,5 seconds | - | 4,8 | 54,2 seconds | - | 4,7 | 49,0 seconds | - | 2,4 | 25,4 seconds | - | delayed | + | 14,0 | 150,7 seconds | 10,4 | time after which improvement in performance appeared statistically significant ([2]; 10 mg/kg): 240 mn; b = statistical value (student's test), number of errors ([2]; 10 mg/kg P.O., 240 minutes): 0,0005; time after which improvement in performance appeared statistically significant ([2]; 20 mg/kg): 180 mn; T = average time for crossing over ([2]; 20 mg/kg P.O., 60 minutes): 89,8 seconds; a = variation of average number of errors as regard as the controls ([2]; 20 mg/kg P.O., 60 minutes): +; E = average number of errors ([2]; 20 mg/kg P.O., 120 minutes): 5,6; T = average time for crossing over ([2]; 20 mg/kg P.O., 120 minutes): 53,4 seconds; a = variation of average number of errors as regard as the controls ([2]; 20 mg/kg P.O., 120 minutes): -; E = average number of errors ([2]; 20 mg/kg P.O., 180 minutes): 2,9; T = average time for crossing over ([2]; 20 mg/kg P.O., 180 minutes): 29,7 seconds; a = variation of average number of errors as regard as the controls ([2]; 20 mg/kg P.O., 180 minutes): -; b = statistical value (student's test), number of errors ([2]; 20 mg/kg P.O., 180 minutes): 0,005; E = average number of errors ([2]; 20 mg/kg P.O., 240 minutes): 3,0; T = average time for crossing over ([2]; 20 mg/kg P.O., 240 minutes): 32,8 seconds; a = variation of average number of errors as regard as the controls ([2]; 20 mg/kg P.O., 240 minutes): -; b = statistical value (student's test), number of errors ([2]; 20 mg/kg P.O., 240 minutes): 0,01; effect on the recovery of learned memory [2]: improving effect |
